Experimental data published in patent publication US20210277020A1, “HETEROCYCLIC COMPOUNDS AS MONOACYLGLYCEROL LIPASE INHIBITORS” (Hoffmann-La Roche Inc., priority 2018, published 2021).

biological target: T1, MAGL (Homo sapiens, UniProt Q99685); assay: 2-AG assay: MAGL inhibition followed by hydrolysis of 2-arachidonoylglycerol to arachidonic acid, mass spectrometry; format: biochemical; settings: measured in 2-AG assay (footnote [a]); substrate 2-arachidonoylglycerol 8 μM, 30 min at RT
T1 sequence (Q99685 1-303): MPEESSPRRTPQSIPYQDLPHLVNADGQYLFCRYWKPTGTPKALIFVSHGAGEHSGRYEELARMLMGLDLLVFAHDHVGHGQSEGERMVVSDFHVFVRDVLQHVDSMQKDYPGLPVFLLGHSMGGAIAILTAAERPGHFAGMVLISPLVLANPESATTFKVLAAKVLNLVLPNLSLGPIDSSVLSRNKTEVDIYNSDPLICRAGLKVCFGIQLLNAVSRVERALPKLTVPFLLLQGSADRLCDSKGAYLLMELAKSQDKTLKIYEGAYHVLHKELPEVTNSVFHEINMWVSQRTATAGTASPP
Source text: Alternatively, compounds were profiled for MAGL inhibitory activity by determining the enzymatic activity by following the hydrolysis of the natural substrate, 2-arachidonoylglycerol, resulting in arachidonic acid, which can be followed by mass spectrometry. This assay is hereinafter abbreviated “2-AG assay”.
Detection by mass spectrometry in the present 2-AG assay has the advantage over known optical assays that the natural enzyme substrate, 2-arachidonoylglycerol, can be used instead of structurally unrelated compounds needed for optical readouts (such as 4-NPA). It thereby delivers more relevant data for activity determination, reduces false positives and generally adds to data quality. In addition, this assay reduces the analysis time from about 10 minutes per sample with standard methods to under 10 seconds per sample. This allows for using the present 2-AG assay in a method for high throughput screening of compounds for their MAGL inhibitory activity.
The 2-AG assay was carried out in 384 well assay plates (PP, Greiner Cat #784201) in a total volume of 20 μL. Compound dilutions were made in 100% DMSO (VWR Chemicals 23500.297) in a polypropylene plate in 3-fold dilution steps to give a final concentration range in the assay from 12.5 μM to […]. 0.25 μL compound dilutions (100% DMSO) were added to 9 μL MAGL in assay buffer (50 mM TRIS (GIBCO, 15567-027), 1 mM EDTA (Fluka, 03690-100 mL), 0.01% (v/v) Tween. After shaking, the plate was incubated for 15 min at RT. To start the reaction, 10 μL 2-arachidonoylglycerol in assay buffer was added. The final concentrations in the assay was […] and 8 μM 2-arachidonoylglyerol. After shaking and 30 min incubation at RT, the reaction was quenched by the addition of 40 μL of acetonitrile containing 4 μM of d8-arachidonic acid. The amount of arachidonic acid was traced by an online SPE system (Agilent Rapidfire) coupled to a triple quadrupole mass spectrometer (Agilent 6460). A C18 SPE cartridge (G9205A) was used in an acetonitrile/water liquid setup. The mass spectrometer was operated in negative electrospray mode following the mass transitions 303.1→259.1 for arachidonic acid and 311.1→267.0 for d8-arachidonic acid. The activity of the compounds was calculated based on the ratio of intensities [arachidonic acid/d8-arachidonic acid].
In a preferred embodiment, the method for determining the MAGL inhibitory activity of a test compound according to the invention, comprises: • (i) providing a solution of a test compound; • (ii) adding the solution of step (i) to a solution of MAGL; • (iii) shaking the mixture obtained from step (ii); • (iv) incubating the mixture obtained from step (iii); • (v) adding a solution of 2-arachidonoylglycerol; • (vi) incubating the mixture obtained from step (v); • (vii) adding a solution of d8-arachidonic acid; and • (viii) determining the ratio of intensities arachidonic acid/d8-arachidonic acid using a mass spectrometer.

Row | IC50 [nM] | SMILES
1 | 5620 | O=C1CO[C@H]2CCN(C(=O)N3CC([S+]([O-])c4ccc(C(F)(F)F)cc4Cl)C3)C[C@H]2N1 (mixture of isomers) [Example 145, (4aR,8aS)-6-[3-[2-Chloro-4-(trifluoromethyl)phenyl]sulfinylazetidine-1-carbonyl]-4,4a,5,7,8,8a-hexahydropyrido[4,3-b][1,4]oxazin-3-one]
2 | 318 | O=C1CO[C@H]2CCN(C(=O)N3CC(C[S+]([O-])c4ccc(C(F)(F)F)cc4Cl)C3)C[C@H]2N1 (mixture of isomers) [Example 153, (4aR,8aS)-6-[3-[[2-Chloro-4-(trifluoromethyl)phenyl]sulfinylmethyl]azetidine-1-carbonyl]-4,4a,5,7,8,8a-hexahydropyrido[4,3-b][1,4]oxazin-3-one]
3 | 22 | CN(c1ccc(C(F)(F)F)cc1)C1CCN(C(=O)N2CC[C@@H]3OCC(=O)N[C@@H]3C2)CC1 (racemic) [Example 136, rac-(4aR,8aS)-6-[4-[N-methyl-4-(trifluoromethyl)anilino]piperidine-1-carbonyl]-4,4a,5,7,8,8a-hexahydropyrido[4,3-b][1,4]oxazin-3-one]
4 | 1100 | CN(c1ccc(C(F)(F)F)cc1)C1CN(C(=O)N2CC[C@@H]3OCC(=O)N[C@@H]3C2)C1 (racemic) [Example 137, rac-(4aR,8aS)-6-[3-[N-methyl-4-(trifluoromethyl)anilino]azetidine-1-carbonyl]-4,4a,5,7,8,8a-hexahydropyrido[4,3-b][1,4]oxazin-3-one]
5 | 2720 | O=C1CO[C@H]2CCN(C(=O)N3CC([S+]([O-])c4ccc(C(F)(F)F)cc4Cl)C3)C[C@H]2N1 (single isomer, unassigned) [Example 146]
6 | 12500 | O=C1CO[C@H]2CCN(C(=O)N3CC([S+]([O-])c4ccc(C(F)(F)F)cc4Cl)C3)C[C@H]2N1 (single isomer, unassigned) [Example 147]
7 | 307 | O=C1CO[C@H]2CCN(C(=O)N3CC(C[S+]([O-])c4ccc(C(F)(F)F)cc4Cl)C3)C[C@H]2N1 (single isomer, unassigned) [Example 154]
8 | 1980 | O=C1CO[C@H]2CCN(C(=O)N3CC(C[S+]([O-])c4ccc(C(F)(F)F)cc4Cl)C3)C[C@H]2N1 (single isomer, unassigned) [Example 155]
9 | 30 | O=C1CO[C@H]2CCN(C(=O)N3CCC(C#Cc4ccccc4Cl)CC3)C[C@H]2N1 [Example 125, (+)-(4aR,8aS)-6-[4-[2-(2-Chlorophenyl)ethynyl]piperidine-1-carbonyl]-4,4a,5,7,8,8a-hexahydropyrido[4,3-b][1,4]oxazin-3-one]
10 | 306 | O=C1CO[C@H]2CCN(C(=O)N3CCC(C#Cc4cnccc4Cl)CC3)C[C@H]2N1 [Example 126, (+)-(4aR,8aS)-6-[4-[2-(4-Chloropyridin-3-yl)ethynyl]piperidine-1-carbonyl]-4,4a,5,7,8,8a-hexahydropyrido[4,3-b][1,4]oxazin-3-one]

Further lines, the molecule ahead of its results:

Row | SMILES | IC50 [nM]
11 | O=C1CO[C@H]2CCN(C(=O)N3CC(CNC(c4ccc(C(F)(F)F)cc4)C(F)(F)F)C3)C[C@H]2N1 (stereo partly drawn) [Example 41, (4aR,8aS)-6-[3-[[[2,2,2-Trifluoro-1-[4-(trifluoromethyl)phenyl]ethyl]amino]methyl]azetidine-1-carbonyl]hexahydro-2H-pyrido[4,3-b][1,4]oxazin-3(4H)-one] | 24
12 | O=C1CO[C@H]2CCN(C(=O)N3CC(CNC(c4cccc(C(F)(F)F)c4)C(F)(F)F)C3)C[C@H]2N1 (stereo partly drawn) [Example 68, (4aR,8aS)-6-(3-(((2,2,2-Trifluoro-1-(3-(trifluoromethyl)phenyl)ethyl)amino)methyl)azetidine-1-carbonyl)hexahydro-2H-pyrido[4,3-b][1,4]oxazin-3(4H)-one] | 18
13 | O=C1CO[C@H]2CCN(C(=O)N3CC(CNC(c4ccc(Cl)cc4Cl)C(F)(F)F)C3)C[C@H]2N1 (stereo partly drawn) [Example 69, (4aR,8aS)-6-(3-(((1-(2,4-Dichlorophenyl)-2,2,2-trifluoroethyl)amino)methyl)azetidine-1-carbonyl)hexahydro-2H-pyrido[4,3-b][1,4]oxazin-3(4H)-one] | 8
14 | O=C1CO[C@H]2CCN(C(=O)N3CC(CNC(c4ccccc4Cl)C(F)(F)F)C3)C[C@H]2N1 (stereo partly drawn) [Example 70, (4aR,8aS)-6-(3-(((1-(2-Chlorophenyl)-2,2,2-trifluoroethyl)amino)methyl)azetidine-1-carbonyl)hexahydro-2H-pyrido[4,3-b][1,4]oxazin-3(4H)-one] | 12
15 | O=C1CO[C@H]2CCN(C(=O)N3CC(CNC(c4ccccc4)C(F)(F)F)C3)C[C@H]2N1 (stereo partly drawn) [Example 71, (4aR,8aS)-6-(3-(((2,2,2-Trifluoro-1-phenylethyl)amino)methyl)azetidine-1-carbonyl)hexahydro-2H-pyrido[4,3-b][1,4]oxazin-3(4H)-one] | 105
16 | O=C1CO[C@H]2CCN(C(=O)N3CC(NC(=O)c4ccc(F)cc4Cl)C3)C[C@H]2N1 [Example 78, 2-chloro-4-fluoro-N-(1-((4aR,8aS)-3-oxooctahydro-2H-pyrido[4,3-b][1,4]oxazine-6-carbonyl)azetidin-3-yl)benzamide] | 4600
17 | CN(CC1CN(C(=O)N2CC[C@@H]3OCC(=O)N[C@@H]3C2)C1)C(c1ccc(C(F)(F)F)cc1)C(F)(F)F (stereo partly drawn) [Example 80, (4aR,8aS)-6-(3-((Methyl(2,2,2-trifluoro-1-(4-(trifluoromethyl)phenyl)ethyl)amino)methyl)azetidine-1-carbonyl)hexahydro-2H-pyrido[4,3-b][1,4]oxazin-3 (4H)-one] | 4
18 | CN(C(=O)C1(c2cccc(C(F)(F)F)c2)CC1)C1CCN(C(=O)N2CC[C@@H]3OCC(=O)N[C@@H]3C2)CC1 [Example 82] | 349
19 | CN(C(=O)Cc1cccc(C(F)(F)F)c1Cl)C1CCN(C(=O)N2CC[C@@H]3OCC(=O)N[C@@H]3C2)CC1 [Example 83, N-[1-[(4aR,8aS)-3-oxo-4,4a,5,7,8,8a-hexahydropyrido[4,3-b][1,4]oxazine-6-carbonyl]piperidin-4-yl]-2-[2-chloro-3-(trifluoromethyl)phenyl]-N-methylacetamide] | 608
20 | CN(C(=O)Cc1cc(C(F)(F)F)ccc1Cl)C1CCN(C(=O)N2CC[C@@H]3OCC(=O)N[C@@H]3C2)CC1 [Example 84, N-[1-[(4aR,8aS)-3-oxo-4,4a,5,7,8,8a-hexahydropyrido[4,3-b][1,4]oxazine-6-carbonyl]piperidin-4-yl]-2-[2-chloro-5-(trifluoromethyl)phenyl]-N-methylacetamide] | 1140
21 | O=C1CO[C@H]2CCN(C(=O)N3CC(CNC(c4ccc(F)cc4)C(F)(F)F)C3)C[C@H]2N1 (stereo partly drawn) [Example 106, (4aR,8aS)-6-[3-[[[2,2,2-Trifluoro-1-(4-fluorophenyl)ethyl]amino]methyl]azetidine-1-carbonyl]-4,4a,5,7,8,8a-hexahydropyrido[4,3-b][1,4]oxazin-3-one] | 264
22 | O=C1CO[C@H]2CCN(C(=O)N3CCC(C(NCc4cccc(C(F)(F)F)c4)C(F)(F)F)CC3)C[C@H]2N1 (stereo partly drawn) [Example 107, (4aR,8aS)-6-[4-[2,2,2-Trifluoro-1-[[3-(trifluoromethyl)phenyl]methylamino]ethyl]piperidine-1-carbonyl]-4,4a,5,7,8,8a-hexahydropyrido[4,3-b][1,4]oxazin-3-one] | 55
